Measured values reported in patent US20190160035A1, “METHOD OF TREATMENT” (QBIOTICS LIMITED, priority 2016, published 2019).
Entries after “also recorded” stand apart in the source; their conditions may differ.

Key:
[1] = tested on: cutaneous Mast Cell Tumor (MCT); test: Example 2: dose de-escalation study (1.0, 0.5, 0.2 mg/mL; 0.5 mL per cm^3 tumor), RECIST v.1.1 tumor response; format: in vivo, dogs; conditions: for RECIST classification: Day 21, one value per dog
Protocol: A multi-site, unmasked, uncontrolled, non-randomized dosage characterization study in dogs was performed under field conditions using dose de-escalation.
Dogs were enrolled in the study as they presented to participating veterinary practices meeting the necessary eligibility criteria. As the study design was a dose de-escalation study, dogs were allocated to the highest dose initially (1.0 mg Compound 1 per mL). Each dose comprised a total cohort of 10 dogs participating across all clinics. Once the cohort of 10 dogs was treated at the highest dose, subsequent dogs were assigned to the 2nd cohort (0.5 mg Compound 1 per mL) and dosing continued through de-escalation until completion of 7 evaluable enrolments in the 3rd cohort (0.2 mg Compound 1 per mL).
Each Compound 1 preparation (1.0, 0.5, and 0.2 mg/mL) was pre-prepared in a 30% propylene glycol, 30 mM Acetate buffer pH 4.0 solution.
Compound 1 was administered to each dog at 0.5 mL per cm^3 of tumor volume as determined on the day of dosing. Digital calipers were used to measure tumor axes.
Wherever possible, the tumor and a 2 cm border surrounding the tumor was shaved prior to treatment. To deliver the drug formulation, the needle of the dosing syringe was inserted into the tumor at the injection point and moved in a radial manner in 2- and 3-dimensions with approximately 0.1 mL of formulation delivered to each 0.2 cm^3 of tumor mass. Study dogs were clinically examined at approximately 24 and 48 hours, 7, 14 and 21 days post-treatment.
Prophylactic and supportive medications considered for use in this study to prevent paraneoplastic MCT-induced adverse events such as Darier's sign and gastric upset included cetrizine, chlorpheniramine, omeprazole, acetylpromazine, methadone and meloxicam. Some supportive therapies were given up to 5 days post treatment (see Table 14). Additional approved supportive therapies (if required) included fentanyl (patch) or tramadol analgesia, or antibiotic (amoxicillin/clavulanic acid).
Determination of efficacy was based on objective tumor measurements made according to the RECIST v.1.1 guidelines (Eisenhauer et al., 2009) using unidirectional tumor measurements.
Pairwise comparison of categorical responses to treatment between treatment groups at each time point post-treatment were compared using Fisher's Exact Test. Using the RECIST classification (Eisenhauer et al., 2009), tumor data was analysed to determine the effectiveness of, and differences between, treatments. Generalised linear modeling was used to examine the combined effects of treatment dose, time post-treatment and other potentially explanatory variables. Generalised estimating equations with appropriate error structure (and controlled for repeated measurements of individuals) were used to examine categorical response to treatment and changes in tumor volume measurement. Tumor volume analysis was also controlled for pre-treatment tumor volume.
MCT measurements were recorded using digital calipers. Measurements were taken pre-treatment and at 7(±1), 14(±1) and 21(±2) days post treatment. The length (cm) was designated the longest measurable axis; the width (cm) was the tumor at the widest point perpendicular to the length; gentle manipulation of the MCT to measure the depth (cm) using the calipers was considered acceptable. Determination of efficacy was based on objective tumor measurements made according to the RECIST v.1.1 guideline using the longest unidirectional measurement (Eisenhauer et al. 2009) recorded at each timepoint. RECIST criteria were only applied to target lesions as Compound 1 is not intended as a systemic therapy. […] RECIST v.1.1 results are summarized below in Table 18.

[2] = Example 5: adverse events (VCOG-CTCAE classification); format: in vivo, Canis lupus familiaris (dog)
Source text: With the exception of swelling and pain, local tissue pathology as a result of treatment (i.e. tumor necrosis) was not considered an adverse event (AE). AEs reported such as transitory post treatment lethargy, listlessness and apathy are generally considered to be the result of the powerful local inflammatory response and systemic activation of the dog's immune response during the treatment response phase. In this study, 72 AEs were identified in 14 event types (see Table 28). The majority of identified AEs (59 out of 72; 82%) were represented by the ‘mild’ VCOG-CTCAE classification Grade 1 with no intervention required. With the exception of dogs C05-T-04 and C05-T-17 (described previously), a level of minimal medical intervention was required in only 3 cases. Dog C05-T-05 was medicated with metronidazole for transient diarrhea reported on Day 14 post-treatment; dog C05-T-07 was medicated with an antibiotic course (amoxicillin/clavulanic acid) for skin pustulation on the ventral abdomen (distant to drug injection site); and dog C05-T-09 was prescribed a prophylactic antibiotic course (cephalexin) on Day 21 on observation by the referral practice of ‘inflamed and angry’ lesion edges and having an impression smear of wound surface with ‘neutrophils and round cells (without granules)’. These findings for dog C05-T-09 of neutrophil presence is perhaps not unexpected due to the mechanism of action of the drug. The dog was reported having normal demeanour at this time. With the exception of the limb swelling in dog C05-T-17 (degranulation reaction), all reported AEs were transient in nature—resolved by 24-48 h post treatment.

## C/C=C(\C)C(=O)O[C@@H]1[C@@H](C)[C@@]2(O)[C@H]([C@@H]3C(C)(C)[C@]13OC(=O)[C@@H](C)CC)[C@@H]1O[C@]1(CO)[C@@H](O)[C@]1(O)C(=O)C(C)=C[C@H]12 [Compound 1, 12-tigloyl-13-(2-methylbutanoyl)-6,7-epoxy-4,5,9,12,13,20-hexahydroxy-1-tigliaen-3-one]
[1]; cohort 1, 1.0 mg/mL, 10 dogs
  Number of dogs with complete response (CR): 9
[1]; cohort 2, 0.5 mg Compound 1/mL
  RECIST classification: PR (partial response (PR, at least 30% decrease in the longest diameter of target lesion)); also recorded: PD (progressive disease (PD, greater than 20% increase in the target lesion))
[1]; cohort 2, 0.5 mg/mL, 10 dogs
  Number of dogs with complete response (CR): 5
  Number of dogs with partial response (PR): 1
  Number of dogs with progressive disease (PD): 1
[1]; cohort 3, 0.2 mg Compound 1/mL
  RECIST classification: PR (partial response (PR, at least 30% decrease in the longest diameter of target lesion))
[1]; cohort 3, 0.2 mg/mL
  Number of dogs showing efficacy (greater than a 70% reduction in tumor volume at 21 days): < 3
[1]; cohort 3, 0.2 mg/mL, 7 dogs
  Number of dogs with complete response (CR): 2
  Number of dogs with partial response (PR): 1
[1]; dog GCV-107, cohort 1
  Mitotic nuclei in post-surgical biopsy material of residual tumor: no mitotic nuclei identified
[1]; dog GCV-107, cohort 1, Day 21
  Total tumor volume reduction (modified ellipsoidal calculation): 36%
[1]; dog GCV-107, cohort 1, by Day 21
  Unidirectional tumor measurement (length) decrease: 23%
[2]; 18 cases, 14 event types
  Number of AEs identified: 72
[2]; 59 out of 72
  Share of AEs of VCOG-CTCAE Grade 1: 82%
[2]; Grade 1
  Apathy: VCOG-CTCAE Grade classification (no. of animals): 1 (2)
  Bruising at treatment site: VCOG-CTCAE Grade classification (no. of animals): 1 (13)
  Inappetance: VCOG-CTCAE Grade classification (no. of animals): 1 (6)
  Lethargy: VCOG-CTCAE Grade classification (no. of animals): 1 (5)
  Listless: VCOG-CTCAE Grade classification (no. of animals): 1 (2)
  Local swelling at treatment site: VCOG-CTCAE Grade classification (no. of animals): 1 (17)
  Pain associated with treatment site: VCOG-CTCAE Grade classification (no. of animals): 1 (12)
  Polydipsia: VCOG-CTCAE Grade classification (no. of animals): 1 (1)
  Ringworm: VCOG-CTCAE Grade classification (no. of animals): 1 (1)
  Transient Diarrhoea: VCOG-CTCAE Grade classification (no. of animals): 1 (1)
  Vomiting: VCOG-CTCAE Grade classification (no. of animals): 1 (2)
[2]; Grade 2
  Bruising at treatment site: VCOG-CTCAE Grade classification (no. of animals): 2 (1)
  Cranial abdominal pain: VCOG-CTCAE Grade classification (no. of animals): 2 (1)
  Inappetance: VCOG-CTCAE Grade classification (no. of animals): 2 (1)
  Injection site lesion antimicrobial prophylaxis: VCOG-CTCAE Grade classification (no. of animals): 2 (1)
  Lethargy: VCOG-CTCAE Grade classification (no. of animals): 2 (1)
  Local swelling at treatment site: VCOG-CTCAE Grade classification (no. of animals): 2 (1)
  Pain associated with treatment site: VCOG-CTCAE Grade classification (no. of animals): 2 (1)
  Skin pustulation: VCOG-CTCAE Grade classification (no. of animals): 2 (1)
  Transient Diarrhoea: VCOG-CTCAE Grade classification (no. of animals): 2 (1)
  Vomiting: VCOG-CTCAE Grade classification (no. of animals): 2 (1)
[2]; all dogs (18 cases)
  Apathy: Incidence (%): 11.1%
  Apathy: No. of dogs experiencing this event: 2
  Bruising at treatment site: Incidence (%): 77.8%
  Bruising at treatment site: No. of dogs experiencing this event: 14
  Cranial abdominal pain: Incidence (%): 5.6%
  Cranial abdominal pain: No. of dogs experiencing this event: 1
  Inappetance: Incidence (%): 38.9%
  Inappetance: No. of dogs experiencing this event: 7
  Injection site lesion antimicrobial prophylaxis: Incidence (%): 5.6%
  Injection site lesion antimicrobial prophylaxis: No. of dogs experiencing this event: 1
  Lethargy: Incidence (%): 33.3%
  Lethargy: No. of dogs experiencing this event: 6
  Listless: Incidence (%): 11.1%
  Listless: No. of dogs experiencing this event: 2
  Local swelling at treatment site: Incidence (%): 100.0%
  Local swelling at treatment site: No. of dogs experiencing this event: 18
  Pain associated with treatment site: Incidence (%): 72.2%
  Pain associated with treatment site: No. of dogs experiencing this event: 13
  Polydipsia: Incidence (%): 5.6%
  Polydipsia: No. of dogs experiencing this event: 1
  Ringworm: Incidence (%): 5.6%
  Ringworm: No. of dogs experiencing this event: 1
  Skin pustulation: Incidence (%): 5.6%
  Skin pustulation: No. of dogs experiencing this event: 1
  Transient Diarrhoea: Incidence (%): 11.1%
  Transient Diarrhoea: No. of dogs experiencing this event: 2
  Vomiting: Incidence (%): 16.7%
  Vomiting: No. of dogs experiencing this event: 3
[2]; except limb swelling in dog C05-T-17
  Time by which reported AEs resolved post treatment: 24 to 48 h
[2]; out of 72 AEs
  Number of AEs of ‘mild’ VCOG-CTCAE Grade 1 (no intervention required): 59
[2]; with the exception of dogs C05-T-04 and C05-T-17
  Cases requiring minimal medical intervention: 3
